In ChEMBL document CHEMBL4507286 (2021):

Assays:
[1] = target: Tyrosine-protein kinase Blk (Homo sapiens) (UniProt P51451)
[2] = target: Sodium-dependent noradrenaline transporter (Homo sapiens) (UniProt P23975); settings: Compound concentration 10.0 uM
[3] = target: Mu-type opioid receptor (Homo sapiens) (UniProt P35372); settings: Compound concentration 10.0 uM
[4] = target: Serine/threonine-protein kinase PAK 5 (Homo sapiens) (UniProt Q9P286)
[5] = target: Casein kinase II subunit alpha' (Homo sapiens) (UniProt P19784)
[6] = target: Myosin light chain kinase, smooth muscle (Homo sapiens) (UniProt Q15746)
[7] = test system: Phosphatidylinositol 4,5-bisphosphate 3-kinase catalytic subunit alpha isoform (Homo sapiens), P42336 [C420R]
[8] = test system: ALK tyrosine kinase receptor (Homo sapiens), Q9UM73 [C1156Y]
[9] = target: Serine/threonine-protein kinase Nek10 (Homo sapiens) (UniProt Q6ZWH5)
[10] = test system: Mast/stem cell growth factor receptor Kit (Homo sapiens), P10721 [V559D,T670I]
Chain of Mast/stem cell growth factor receptor Kit (Homo sapiens), P10721 [V559D,T670I] (P10721 whole entry V559D/T670I): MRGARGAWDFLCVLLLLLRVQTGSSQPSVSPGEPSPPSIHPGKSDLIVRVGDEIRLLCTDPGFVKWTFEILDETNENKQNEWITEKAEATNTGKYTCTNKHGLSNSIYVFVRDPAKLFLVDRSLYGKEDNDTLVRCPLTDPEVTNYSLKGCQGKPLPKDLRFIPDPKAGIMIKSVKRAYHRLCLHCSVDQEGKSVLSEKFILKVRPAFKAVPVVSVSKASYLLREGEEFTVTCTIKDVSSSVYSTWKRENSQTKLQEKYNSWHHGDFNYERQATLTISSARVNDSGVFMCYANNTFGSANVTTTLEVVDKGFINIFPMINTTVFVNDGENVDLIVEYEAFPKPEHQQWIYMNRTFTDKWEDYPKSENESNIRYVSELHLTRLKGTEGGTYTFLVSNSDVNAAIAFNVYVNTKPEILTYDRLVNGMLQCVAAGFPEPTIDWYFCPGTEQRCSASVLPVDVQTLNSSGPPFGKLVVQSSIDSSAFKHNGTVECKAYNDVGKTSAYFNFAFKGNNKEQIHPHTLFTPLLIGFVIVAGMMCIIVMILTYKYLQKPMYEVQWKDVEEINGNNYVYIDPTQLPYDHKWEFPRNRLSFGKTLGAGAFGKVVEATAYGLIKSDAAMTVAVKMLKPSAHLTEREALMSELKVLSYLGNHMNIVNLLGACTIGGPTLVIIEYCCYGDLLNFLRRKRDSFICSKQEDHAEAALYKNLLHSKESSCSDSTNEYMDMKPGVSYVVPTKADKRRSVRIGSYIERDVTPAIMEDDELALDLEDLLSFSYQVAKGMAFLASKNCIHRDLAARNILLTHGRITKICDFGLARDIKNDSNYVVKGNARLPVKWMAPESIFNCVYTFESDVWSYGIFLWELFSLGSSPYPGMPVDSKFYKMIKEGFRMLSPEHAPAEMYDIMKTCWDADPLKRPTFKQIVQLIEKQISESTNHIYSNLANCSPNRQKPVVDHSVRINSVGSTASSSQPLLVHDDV

[11] = target: Bone morphogenetic protein receptor type-1B (Homo sapiens) (UniProt O00238)
[12] = target: Vascular endothelial growth factor receptor 1 (Homo sapiens) (UniProt P17948)
[13] = target: Serine/threonine-protein kinase 3 (Homo sapiens) (UniProt Q13188)
[14] = target: Mitogen-activated protein kinase kinase kinase kinase 5 (Homo sapiens) (UniProt Q9Y4K4)
[15] = target: MAP kinase-activated protein kinase 2 (Homo sapiens) (UniProt P49137)
[16] = target: Cytoplasmic tyrosine-protein kinase BMX (Homo sapiens) (UniProt P51813)
[17] = target: Epithelial discoidin domain-containing receptor 1 (Homo sapiens) (UniProt Q08345)
[18] = target: Serine/threonine-protein kinase/endoribonuclease IRE1 (Homo sapiens) (UniProt O75460)
Chain of Serine/threonine-protein kinase/endoribonuclease IRE1 (Homo sapiens) (O75460 19-977 limits assumed): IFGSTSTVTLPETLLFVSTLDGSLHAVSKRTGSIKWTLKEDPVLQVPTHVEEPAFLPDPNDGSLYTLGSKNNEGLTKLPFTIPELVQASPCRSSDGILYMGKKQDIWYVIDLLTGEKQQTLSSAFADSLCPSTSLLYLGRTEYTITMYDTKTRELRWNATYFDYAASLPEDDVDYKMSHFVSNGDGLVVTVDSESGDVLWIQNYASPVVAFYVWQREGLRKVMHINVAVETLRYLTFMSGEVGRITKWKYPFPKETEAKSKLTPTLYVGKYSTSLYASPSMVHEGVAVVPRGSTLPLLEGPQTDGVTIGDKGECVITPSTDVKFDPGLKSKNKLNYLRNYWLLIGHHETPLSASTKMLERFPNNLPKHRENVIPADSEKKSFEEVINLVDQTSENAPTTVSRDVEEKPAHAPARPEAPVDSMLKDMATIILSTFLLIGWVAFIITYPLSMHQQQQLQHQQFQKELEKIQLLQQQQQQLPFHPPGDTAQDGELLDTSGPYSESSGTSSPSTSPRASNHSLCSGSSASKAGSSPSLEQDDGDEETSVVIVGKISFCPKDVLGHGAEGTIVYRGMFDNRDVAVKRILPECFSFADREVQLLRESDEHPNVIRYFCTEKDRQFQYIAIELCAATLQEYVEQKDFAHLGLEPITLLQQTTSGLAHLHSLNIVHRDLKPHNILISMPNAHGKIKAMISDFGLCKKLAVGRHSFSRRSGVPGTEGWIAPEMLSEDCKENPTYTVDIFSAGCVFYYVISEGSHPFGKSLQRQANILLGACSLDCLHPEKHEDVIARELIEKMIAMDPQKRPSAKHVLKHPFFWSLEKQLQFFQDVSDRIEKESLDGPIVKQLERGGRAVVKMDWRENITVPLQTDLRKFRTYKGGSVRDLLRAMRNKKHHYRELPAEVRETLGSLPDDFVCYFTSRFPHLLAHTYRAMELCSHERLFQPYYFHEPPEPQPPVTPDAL

[19] = target: Tyrosine-protein kinase Yes (Homo sapiens) (UniProt P07947)
[20] = target: Tyrosine-protein kinase Lck (Homo sapiens) (UniProt P06239)
[21] = target: Serine/threonine-protein kinase pim-1 (Homo sapiens) (UniProt P11309)
[22] = target: Tyrosine-protein kinase TXK (Homo sapiens) (UniProt P42681)
[23] = target: Protein kinase C delta type (Homo sapiens) (UniProt Q05655)
[24] = test system: Tyrosine-protein kinase ABL1 (Homo sapiens), P00519 [E255K]
[25] = test system: Phosphatidylinositol 4,5-bisphosphate 3-kinase catalytic subunit alpha isoform (Homo sapiens), P42336 [H1047Y]
[26] = target: 5'-AMP-activated protein kinase catalytic subunit alpha-1 (Homo sapiens) (UniProt Q13131)
[27] = target: Casein kinase I isoform gamma-3 (Homo sapiens) (UniProt Q9Y6M4)
[28] = test system: Mast/stem cell growth factor receptor Kit (Homo sapiens), P10721 [V559D,V654A]
Chain of Mast/stem cell growth factor receptor Kit (Homo sapiens), P10721 [V559D,V654A] (P10721 whole entry V559D/V654A): as the sequence (P10721 whole entry V559D/T670I) above, with V654A, I670T counted along it

[29] = target: Tyrosine-protein kinase receptor Tie-1 (Homo sapiens) (UniProt P35590)
Chain of Tyrosine-protein kinase receptor Tie-1 (Homo sapiens) (P35590 whole entry): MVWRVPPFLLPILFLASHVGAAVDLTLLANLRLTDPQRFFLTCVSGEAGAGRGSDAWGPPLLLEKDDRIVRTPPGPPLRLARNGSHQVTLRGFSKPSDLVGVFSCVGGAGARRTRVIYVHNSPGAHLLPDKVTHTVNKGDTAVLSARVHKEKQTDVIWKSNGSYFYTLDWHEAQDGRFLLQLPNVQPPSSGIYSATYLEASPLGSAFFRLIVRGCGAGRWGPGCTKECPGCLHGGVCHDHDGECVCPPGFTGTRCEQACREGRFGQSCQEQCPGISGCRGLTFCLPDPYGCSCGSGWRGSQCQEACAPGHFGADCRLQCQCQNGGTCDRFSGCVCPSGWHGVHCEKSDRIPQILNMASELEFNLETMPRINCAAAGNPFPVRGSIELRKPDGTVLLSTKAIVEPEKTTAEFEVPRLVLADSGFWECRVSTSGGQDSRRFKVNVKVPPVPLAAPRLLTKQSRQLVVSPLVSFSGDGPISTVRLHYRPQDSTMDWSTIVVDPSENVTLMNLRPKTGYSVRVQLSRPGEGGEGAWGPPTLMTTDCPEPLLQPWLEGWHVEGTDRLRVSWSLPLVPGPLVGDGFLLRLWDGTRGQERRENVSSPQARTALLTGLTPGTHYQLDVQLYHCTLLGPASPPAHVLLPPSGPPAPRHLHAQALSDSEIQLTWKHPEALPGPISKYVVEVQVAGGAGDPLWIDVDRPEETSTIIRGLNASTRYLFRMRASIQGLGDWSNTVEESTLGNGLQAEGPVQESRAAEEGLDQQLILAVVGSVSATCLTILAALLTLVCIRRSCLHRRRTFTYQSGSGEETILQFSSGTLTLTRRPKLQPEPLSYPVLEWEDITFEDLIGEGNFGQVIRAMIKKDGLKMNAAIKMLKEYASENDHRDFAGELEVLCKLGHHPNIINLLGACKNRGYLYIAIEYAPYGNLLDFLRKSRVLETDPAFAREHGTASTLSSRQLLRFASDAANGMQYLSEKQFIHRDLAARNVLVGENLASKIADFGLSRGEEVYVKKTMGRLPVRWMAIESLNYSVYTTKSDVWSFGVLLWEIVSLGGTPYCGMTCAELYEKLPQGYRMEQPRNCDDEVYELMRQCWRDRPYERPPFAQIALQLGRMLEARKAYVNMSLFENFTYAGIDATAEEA

[30] = target: Ephrin type-B receptor 6 (Homo sapiens) (UniProt O15197)
[31] = target: Phosphatidylinositol 4-phosphate 5-kinase type-1 alpha (Homo sapiens) (UniProt Q99755)
Chain of Phosphatidylinositol 4-phosphate 5-kinase type-1 alpha (Homo sapiens) (Q99755 whole entry): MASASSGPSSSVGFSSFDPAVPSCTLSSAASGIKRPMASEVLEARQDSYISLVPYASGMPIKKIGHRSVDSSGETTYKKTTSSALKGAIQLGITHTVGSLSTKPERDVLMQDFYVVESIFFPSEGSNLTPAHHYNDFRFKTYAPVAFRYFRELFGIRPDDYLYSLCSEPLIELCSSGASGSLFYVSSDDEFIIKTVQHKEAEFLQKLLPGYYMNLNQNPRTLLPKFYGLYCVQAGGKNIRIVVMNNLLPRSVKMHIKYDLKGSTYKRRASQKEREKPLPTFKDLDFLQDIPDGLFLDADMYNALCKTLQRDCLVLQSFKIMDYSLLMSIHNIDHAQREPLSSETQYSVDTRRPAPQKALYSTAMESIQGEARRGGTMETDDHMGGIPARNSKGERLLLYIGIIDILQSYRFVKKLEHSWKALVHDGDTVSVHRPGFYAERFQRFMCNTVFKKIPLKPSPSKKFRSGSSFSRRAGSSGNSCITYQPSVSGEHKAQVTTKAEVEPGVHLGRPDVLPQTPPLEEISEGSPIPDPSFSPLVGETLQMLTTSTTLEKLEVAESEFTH

[32] = target: Aurora kinase C (Homo sapiens) (UniProt Q9UQB9)
[33] = target: Tyrosine-protein kinase CSK (Homo sapiens) (UniProt P41240)
[34] = target: Serine/threonine-protein kinase Nek1 (Homo sapiens) (UniProt Q96PY6)
[35] = target: Cyclin-dependent kinase 2 (Homo sapiens, UniProt P24941)
[36] = target: Casein kinase I isoform gamma-2 (Homo sapiens) (UniProt P78368)
[37] = target: Phosphatidylinositol 4,5-bisphosphate 3-kinase catalytic subunit delta isoform (Homo sapiens) (UniProt O00329)
[38] = target: Serine/threonine-protein kinase MRCK beta (Homo sapiens) (UniProt Q9Y5S2)
[39] = test system: Receptor-type tyrosine-protein kinase FLT3 (Homo sapiens), P36888 [D835V]
[40] = target: LIM domain kinase 1 (Homo sapiens) (UniProt P53667)
[41] = target: Mitogen-activated protein kinase 1 (Homo sapiens, UniProt P28482)
[42] = target: Hepatocyte growth factor receptor (Homo sapiens) (UniProt P08581)
[43] = target: Death-associated protein kinase 2 (Homo sapiens) (UniProt Q9UIK4)
[44] = target: Mitogen-activated protein kinase 10 (Homo sapiens) (UniProt P53779)
[45] = target: 5-hydroxytryptamine receptor 7 (Homo sapiens) (UniProt P34969); settings: Compound concentration 10.0 uM
[46] = Compound concentration 1000.0 nM
[47] = Compound concentration 100.0 nM

Chain of Mu-type opioid receptor (Homo sapiens) (P35372 whole entry): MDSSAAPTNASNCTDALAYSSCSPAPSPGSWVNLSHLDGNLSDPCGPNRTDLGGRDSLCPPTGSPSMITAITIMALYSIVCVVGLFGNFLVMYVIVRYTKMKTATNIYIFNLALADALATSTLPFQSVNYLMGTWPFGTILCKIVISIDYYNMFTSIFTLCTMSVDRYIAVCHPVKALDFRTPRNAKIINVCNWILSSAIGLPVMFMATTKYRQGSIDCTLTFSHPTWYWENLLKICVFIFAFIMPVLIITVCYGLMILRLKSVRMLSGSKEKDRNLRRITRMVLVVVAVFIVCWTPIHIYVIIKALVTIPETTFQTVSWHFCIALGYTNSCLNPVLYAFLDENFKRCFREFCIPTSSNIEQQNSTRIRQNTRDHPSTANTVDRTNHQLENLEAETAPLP
Chain of Serine/threonine-protein kinase PAK 5 (Homo sapiens) (Q9P286 whole entry, looked up): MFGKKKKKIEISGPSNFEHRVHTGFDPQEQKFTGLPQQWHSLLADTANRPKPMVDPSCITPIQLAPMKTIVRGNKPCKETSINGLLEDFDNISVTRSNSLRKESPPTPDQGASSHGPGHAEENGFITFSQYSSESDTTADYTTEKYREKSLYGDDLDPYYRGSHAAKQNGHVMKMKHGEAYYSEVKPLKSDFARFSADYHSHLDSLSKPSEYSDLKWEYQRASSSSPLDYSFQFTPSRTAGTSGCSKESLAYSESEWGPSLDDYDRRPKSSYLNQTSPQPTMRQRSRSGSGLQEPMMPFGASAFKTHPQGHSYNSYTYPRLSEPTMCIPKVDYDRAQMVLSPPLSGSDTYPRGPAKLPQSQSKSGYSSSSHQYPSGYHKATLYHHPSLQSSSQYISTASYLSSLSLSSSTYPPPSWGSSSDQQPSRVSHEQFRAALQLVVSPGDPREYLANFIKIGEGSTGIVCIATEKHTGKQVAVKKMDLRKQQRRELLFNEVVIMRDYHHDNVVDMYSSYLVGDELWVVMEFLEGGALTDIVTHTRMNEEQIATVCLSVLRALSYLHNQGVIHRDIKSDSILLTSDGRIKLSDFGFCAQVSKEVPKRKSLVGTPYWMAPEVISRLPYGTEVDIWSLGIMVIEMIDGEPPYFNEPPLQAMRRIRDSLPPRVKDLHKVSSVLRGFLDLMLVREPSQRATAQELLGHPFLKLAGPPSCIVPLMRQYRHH

## C[C@H](NC(=O)Nc1cc2[nH]ncc2c(CO)n1)c1ccccn1 [ERKi-NC]
[1]; [46]
  residual activity: 100%
[2]
  inhibition: 25.4%
[3]
  inhibition: -6.59%
[4]; [46]
  residual activity: 100%
[5]; [46]
  residual activity: 100%
[6]; [46]
  residual activity: 100%
[7]; [46]
  residual activity: 97.1%
[8]; [46]
  residual activity: 100%
[9]; [46]
  residual activity: 53.8%
[10]; [46]
  residual activity: 85.5%
[11]; [46]
  residual activity: 100%
[12]; [46]
  residual activity: 100%
[13]; [46]
  residual activity: 82.2%
[14]; [46]
  residual activity: 99.6%
[15]; [46]
  residual activity: 100%
[16]; [46]
  residual activity: 91.7%
[17]; [46]
  residual activity: 74.7%
[18]; [46]
  residual activity: 100%
[19]; [46]
  residual activity: 100%
[20]; [46]
  residual activity: 81.5%
[21]; [46]
  residual activity: 78.2%
[22]; [46]
  residual activity: 51%
[23]; [46]
  residual activity: 63.8%
[24]; [46]
  residual activity: 81.4%
[25]; [46]
  residual activity: 34.6%
[26]; [46]
  residual activity: 100%
[27]; [46]
  residual activity: 100%
[28]; [46]
  residual activity: 100%
[29]; [46]
  residual activity: 86.8%
[30]; [46]
  residual activity: 100%
[31]; [46]
  residual activity: 100%
[32]; [46]
  residual activity: 100%
[33]; [46]
  residual activity: 100%
[34]; [46]
  residual activity: 100%
[35]; [46]
  residual activity: 100%
[36]; [46]
  residual activity: 100%
[37]; [46]
  residual activity: 100%
[38]; [46]
  residual activity: 100%
[39]; [46]
  residual activity: 88%
[40]; [46]
  residual activity: 100%
[41]; [46]
  residual activity: 50%
[42]; [46]
  residual activity: 100%
[43]; [46]
  residual activity: 100%
[44]; [46]
  residual activity: 74.6%
[45]
  inhibition: 33.4%

## C[C@@H](NC(=O)Nc1cc2[nH]ncc2c(CO)n1)c1ccccc1 [ERKi]
[1]; [47]
  residual activity: 100%
[2]
  inhibition: -9.99%
[3]
  inhibition: 6.82%
[4]; [47]
  residual activity: 88.7%
[5]; [47]
  residual activity: 76%
[6]; [47]
  residual activity: 83.5%
[7]; [47]
  residual activity: 89.2%
[8]; [47]
  residual activity: 100%
[9]; [47]
  residual activity: 100%
[10]; [47]
  residual activity: 83.7%
[11]; [47]
  residual activity: 69.4%
[12]; [47]
  residual activity: 100%
[13]; [47]
  residual activity: 90.2%
[14]; [47]
  residual activity: 86.8%
[15]; [47]
  residual activity: 100%
[16]; [47]
  residual activity: 94.3%
[17]; [47]
  residual activity: 100%
[18]; [47]
  residual activity: 61.6%
[19]; [47]
  residual activity: 96.9%
[20]; [47]
  residual activity: 94.8%
[21]; [47]
  residual activity: 90.3%
[22]; [47]
  residual activity: 100%
[23]; [47]
  residual activity: 94.9%
[24]; [47]
  residual activity: 83.4%
[25]; [47]
  residual activity: 75.7%
[26]; [47]
  residual activity: 91%
[27]; [47]
  residual activity: 87.9%
[28]; [47]
  residual activity: 96.6%
[29]; [47]
  residual activity: 71.2%
[30]; [47]
  residual activity: 75.5%
[31]; [47]
  residual activity: 84.5%
[32]; [47]
  residual activity: 100%
[33]; [47]
  residual activity: 77.1%
[34]; [47]
  residual activity: 74.1%
[35]; [47]
  residual activity: 75.7%
[36]; [47]
  residual activity: 100%
[37]; [47]
  residual activity: 81.9%
[38]; [47]
  residual activity: 99.8%
[39]; [47]
  residual activity: 95.2%
[40]; [47]
  residual activity: 94.1%
[41]; [47]
  residual activity: 1%
[42]; [47]
  residual activity: 94.9%
[43]; [47]
  residual activity: 66.3%
[44]; [47]
  residual activity: 68.1%
[45]
  inhibition: 21.8%
